Where a name gives a salt, the structure may show the parent alone.
What was measured:
[1] = target: human ROCK I (Homo sapiens, UniProt Q13464); assay: ROCK enzyme inhibition assay; format: biochemical
Description: ROCK enzyme inhibitory activity of the compounds of the present invention has been assayed as follow. An aqueous solution of Rho kinase substrate MYTP was added to 96-well plate. Following incubation for overnight at 4° C., the plate was blocked by using blocking buffer containing BSA. To the plate was added reaction buffer containing each concentration of compound, suitable concentration of human ROCK I (Caruna Biosciences), ATP, β-glycerol phosphate, EGTA, sodium orthovanadate and DTT, and then the plate was incubated for 1 hour. After washing the plate by washing buffer, anti-phosphothreonin antibody was added to the plate, and then the plate was incubated for 1 hour. After washing the plate by washing buffer again, HRP-conjugated anti-phosphorylated protein antibody was added to the plate, and then the plate was incubated for 1 hour. After washing the plate by washing buffer again, colorimetric substrate TMB microwell peroxidase substrate was added to the plate, and then the plate was incubated for appropriate time. After incubation, sulfuric acid was added to the plate to stop the reaction, and then absorbance (450 nm) was measured by using spectromether. Based, on the absorbance for each compound, the data is fit using Prism software to obtain a IC50 value.

[2] = tested on: Male SD rats; assay: Changes in hindlimb weight distribution after intra-articular monosodium iodoacetate (MIA) injection; format: in vivo; settings: Rattus norvegicus, 504 h; oral administration; MIA-injected rats, three weeks after injection
Text: As intra-articular injection of monosodium iodoacetate (MIA) induced human osteoarthritis-like histopathological changes in knee joint, this model would be very useful for the study of human osteoarthritis. Recently, it is reported the clinical scores of the joint pain were closely correlated to the grade of histological findings (J Vet Med Sci 65, 1195, 2003) and this model may be useful for estimation of therapeutic effects of pain with osteoarthritis.
Male SD rats were anesthetized with halothane (Takeda, Japan) and given single intra-articular injection of 1 mg of monosodium iodoacetate (MIA; Sigma, St. Louis, USA) through the infrapatellar ligament of the right knee. MIA was dissolved with physiologic saline and administered in a volume of 50 μl using a 27-gauge, 0.5-inch needle. Three weeks after the injection, hindlimb weight distribution was determined using an incapacitance tester (Linton Instrumentation, Norfork, UK). Rats were allowed to acclimate to the testing apparatus and when stationary, readings were taken over a 5 s period. […] Each group in each experiment was performed in about 8 animals.

[3] = tested on: Male Wistar rats; assay: Effects on hindlimb blood flow (laser Doppler); format: in vivo; settings: po; 10 mg/kg p.o.; rat hindlimb; read-out: % of increase of blood flow
Text: As one of the study to clarify the usefulness of the compounds of the present invention for peripheral arterial disease, we conducted a study to evaluate the effects of the compounds on hindlimb blood flow in rats.
Male Wistar rats were anesthetized by intraperitoneal pentobarbital injection (Kanto chemical, Japan) after oral administration of compounds. Rats were placed on a heating plate for subsequent hindlimb blood flow analysis. We measured hindlimb blood flow using a laser Doppler blood flow meter (PeriScan System, Stockholm, Sweden). After the laser Doppler images were recorded, the average perfusion values of both limbs were calculated, and evaluated the effects of compounds on hindlimb blood flow. Each experiment was performed in about 4 animals.

[4] = tested on: Male Wistar rats; assay: Inhibitory effects on phenylephrine-induced elevation of urethral pressure; format: in vivo; settings: Rattus norvegicus, iv; phenylephrine 30 μg/kg i.v.; anesthetized rats; read-out: Inhibition of elevation in urethral pressure ED30
Text: To evaluate the usefulness of the compounds of the present invention for urinary dysfunction associated with benign prostatic hyperplasia, we investigated the inhibitory effects of the intravenous administration of the compounds on phenylephrine-induced elevation of the urethral pressure in rats.
Male Wistar rats were anesthetized with urethane (SIGMA, USA). After midline abdominal incision, catheter to measure the urethral pressure (3.5 Fr, Millar, USA) was inserted into the urethra from top of the bladder. After confirming the Phenylephrine (30 μg/kg i.v.)-induced elevation of the urethral pressure, compounds were administered intravenously in increasing doses. Every 5 min after administration of compounds, Phenylephrine (30 μg/kg i.v.) was injected, and the inhibitory effects of compounds on phenylephrine-induced elevation of urethral pressure were evaluated. Each experiment was performed in about 4 animals.

[5] = tested on: female C57Bl/6 mice; assay: Bleomycin-induced lung fibrosis model, hydroxyproline content of the lung; format: in vivo, mouse; settings: 1 mg/kg orally once a day from day 1 to day 35; lung removed day 36
Description: To induce pulmonary fibrosis, ten mg/kg bleomycin (Nipponkayaku Industries Ltd, Tokyo, Japan) was intraperitoneally injected into female C57Bl/6 mice (9 weeks old, Charles River Laboratories Japan, Inc.) once a day from day 1 to day 10. Bleomycin was dissolved in saline and control mice were intraperitoneally injected with saline. The compound or vehicle was orally administered to the mice once a day from day 1 to day 35. On day 36, mice were sacrificed under anesthesia of pentobarbital and the lung was surgically removed. Hydroxyproline content of the lung was assayed according to the method of Woessner JF (1).

[6] = tested on: beagle dogs; assay: In vivo eye pressure lowering effect (IOP), beagle dogs; settings: beagle dog, 10 mM applied topically
Description: (§1) The intraocular pressure (IOP) was determined in beagle dogs and rats with tonometer (TONO-PEN™, MENTOR and TonoLab™, M. E. Technica), specially calibrated for the eye of the particular species. In beagle dogs, the cornea was anesthetized with oxibuprocain before each IOP measurement.

[7] = tested on: rats; assay: In vivo eye pressure lowering effect (IOP), rats; settings: rat, 10 mM applied topically
Description: as §1

Chain of human ROCK I (Q13464 whole entry): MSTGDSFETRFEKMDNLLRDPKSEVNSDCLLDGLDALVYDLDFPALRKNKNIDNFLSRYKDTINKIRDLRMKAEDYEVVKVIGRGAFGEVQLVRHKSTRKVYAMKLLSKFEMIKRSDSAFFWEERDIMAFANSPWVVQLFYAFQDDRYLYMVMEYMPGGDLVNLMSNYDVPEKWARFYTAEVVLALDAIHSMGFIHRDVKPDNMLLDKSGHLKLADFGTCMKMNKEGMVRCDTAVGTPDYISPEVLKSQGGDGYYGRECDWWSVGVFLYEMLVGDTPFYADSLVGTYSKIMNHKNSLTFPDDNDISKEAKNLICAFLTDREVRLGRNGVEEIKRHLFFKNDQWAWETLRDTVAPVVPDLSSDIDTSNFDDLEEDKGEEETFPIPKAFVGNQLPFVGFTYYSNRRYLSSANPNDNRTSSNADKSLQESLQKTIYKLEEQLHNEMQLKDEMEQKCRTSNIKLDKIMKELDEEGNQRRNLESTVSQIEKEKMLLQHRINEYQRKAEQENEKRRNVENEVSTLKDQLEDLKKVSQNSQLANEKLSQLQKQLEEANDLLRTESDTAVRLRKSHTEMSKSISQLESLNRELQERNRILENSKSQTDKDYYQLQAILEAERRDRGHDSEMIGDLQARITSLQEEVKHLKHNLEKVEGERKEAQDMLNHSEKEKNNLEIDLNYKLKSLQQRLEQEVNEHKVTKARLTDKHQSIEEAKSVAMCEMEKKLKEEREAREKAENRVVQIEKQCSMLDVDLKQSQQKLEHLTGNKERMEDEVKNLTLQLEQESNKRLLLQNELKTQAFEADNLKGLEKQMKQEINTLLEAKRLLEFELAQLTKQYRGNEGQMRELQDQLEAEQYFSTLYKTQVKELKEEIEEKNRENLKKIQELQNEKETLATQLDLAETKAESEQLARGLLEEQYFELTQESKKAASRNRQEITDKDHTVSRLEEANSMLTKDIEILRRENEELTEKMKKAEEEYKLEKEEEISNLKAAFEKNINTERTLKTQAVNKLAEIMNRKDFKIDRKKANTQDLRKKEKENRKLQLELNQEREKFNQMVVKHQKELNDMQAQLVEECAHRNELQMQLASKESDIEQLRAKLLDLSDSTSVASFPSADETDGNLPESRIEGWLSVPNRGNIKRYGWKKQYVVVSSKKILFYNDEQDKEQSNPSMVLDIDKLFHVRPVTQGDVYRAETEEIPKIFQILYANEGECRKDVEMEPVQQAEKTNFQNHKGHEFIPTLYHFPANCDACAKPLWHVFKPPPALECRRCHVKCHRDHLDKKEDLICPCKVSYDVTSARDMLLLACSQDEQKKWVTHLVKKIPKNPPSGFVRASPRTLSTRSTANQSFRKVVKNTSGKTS

Row | SMILES | IC50 [1] | ED50 [2] | change in vivo at 10 mg/kg [3] | ED30 [4] | reduction of hydroxyproline content of the lung [5] | IOP change in animals after 4 hours [6] | IOP change in animals after 4 hours [7]
1 | COc1nc(N[C@H]2CC[C@H](N)CC2)ccc1C(N)=O [Example 1, 6-[(trans-4-aminocyclohexyl)amino]-2-methoxynicotinamide dihydrochloride] | 2 nM | < 1 mg/kg | > 130% | < 0.5 mg/kg | – | – | –
2 | COc1nc(N[C@H]2CC[C@H](N)CC2)c(F)cc1C(N)=O [Example 3, 6-[(trans-4-aminocyclohexyl)amino]-5-fluoro-2-methoxynicotinamide] | – | – | – | – | 66% | −16% reduced in beagle dog | –
3 | COc1nc(N[C@H]2CC[C@H](N)CC2)c(Cl)cc1C(N)=O [Example 4, 6-[(trans-4-aminocyclohexyl)amino]-5-chloro-2-methoxynicotinamide] | 5 nM | < 1 mg/kg | > 130% | < 0.5 mg/kg | – | – | –
4 | CCOc1nc(N[C@H]2CC[C@H](N)CC2)ccc1C(N)=O [Example 6, 6-[(trans-4-aminocyclohexyl)amino]-2-ethoxynicotinamide dihydrochloride] | 10 nM | – | > 130% | < 0.5 mg/kg | – | – | –
5 | CCOc1nc(N[C@H]2CC[C@H](N)CC2)c(F)cc1C(N)=O [Example 7, 6-[(trans-4-aminocyclohexyl)amino]-2-ethoxy-5-fluoronicotinamide dihydrochloride] | 9 nM | – | > 130% | < 0.5 mg/kg | – | – | –
6 | CCOc1nc(N[C@H]2CC[C@H](N)CC2)c(Br)cc1C(N)=O [Example 9, 6-[(trans-4-aminocyclohexyl)amino]-5-bromo-2-ethoxynicotinamide] | – | – | – | – | – | – | −30% reduced in rat
7 | CCOc1nc(N[C@H]2CC[C@H](N)CC2)c(I)cc1C(N)=O [Example 10, 6-[(trans-4-aminocyclohexyl)amino]-5-iodo-2-ethoxynicotinamide] | – | – | – | – | – | – | −26% reduced in rat
8 | COc1nc(N[C@H]2CC[C@H](NC3CCS(=O)(=O)CC3)CC2)c(F)cc1C(N)=O [Example 30, 6-({trans-4-[(1,1-dioxidotetrahydro-2H-thiopyran-4-yl)amino]cyclohexyl}amino)-5-fluoro-2-methoxynicotinamide] | 7 nM | – | > 130% | < 0.5 mg/kg | – | – | –

More lines, in order of falling IC50 [1], values ahead:

Row | IC50 [1] | SMILES | ED50 [2] | change in vivo at 10 mg/kg [3] | ED30 [4] | reduction of hydroxyproline content of the lung [5] | IOP change in animals after 4 hours [6] | IOP change in animals after 4 hours [7]
9 | 58 nM | COc1nc(N[C@H]2CC[C@H](NS(C)(=O)=O)CC2)c(F)cc1C(N)=O [Example 28, 6-[(trans-4-methanesulfonylaminocyclohexyl)amino]-5-fluoro-2-methoxynicotinamide] | – | > 130% | < 0.5 mg/kg | – | – | –
10 | 39 nM | COc1nc(N[C@H]2CC[C@H](N)CC2)c(Br)cc1C(N)=O [Example 5, 6-[(trans-4-aminocyclohexyl)amino]-5-bromo-2-methoxynicotinamide] | < 3 mg/kg | > 130% | < 0.5 mg/kg | – | – | –
11 | 2 nM | COc1nc(N[C@H]2CC[C@H](N)CC2)c(F)cc1C(N)=O [Example 2, 6-[(trans-4-aminocyclohexyl)amino]-5-fluoro-2-methoxynicotinamide dihydrochloride] | < 1 mg/kg | > 130% | < 0.5 mg/kg | – | – | –
